From US12281122B1, “PI3K inhibitors” (Cogent Biosciences, Inc., priority 2023, dated 2025)

Experiments:
PI3Kα = PI3Kα (Homo sapiens, UniProt P42336); test: PI3Kα enzyme assay (Transcreener ADP2 TR-FRET Red Assay); type: biochemical; settings: purified recombinant full-length protein; 2 hours pre-incubation with compound; read-out: PI3Kα WT IC50
Procedure: (§1) Activity against PI3Kα and PI3Kα H1047R enzymes were determined in biochemical assays using purified recombinant full-length proteins with the Transcreener ADP^2 TR-FRET Red Assay from Bellbrook Labs. (Catalogue number 3011-10K). Test compounds were dissolved in DMSO and were tested in 11 point 1:3 serial dilutions, typical final concentration range from 50,000 nM to 0.85 nM. Enzymes were pre-incubated with compounds for 2 hours at room temperature prior to initiating the reactions. Assays were initiated with a 2×ATP/PI(4,5)P2 diC8 substrate mixture. After 60 minutes at room temperature, the reactions were quenched with detection reagent and incubated for an additional 60 minutes at room temperature. The plates were read using a multimode reader and the emission ratio of 665 nm to 615 nm was determined. This ratio was converted to percent of control (POC). [1-(high control-sample signal)/(high control-low control)]*100. Wells without compound were used to determine high control values and wells without enzyme were used to determine low control values. The POC values were fit using a four-parameter logistic model and the value where the fit curve was equal to 50 POC was reported as the IC50 using the Signals VitroVivo software package (PerkinElmer). Final assay conditions were: 40 mM HEPES pH 7.5, 20 mM NaCl, 25 mM MgCl2, 0.01% Triton X-100. The enzyme source, catalogue number, final enzyme concentration, and final ATP and PI(4,5)P2 diC8 concentration can be found in the table E10 below.

PI3Kα H1047R = PI3Kα H1047R (Homo sapiens, UniProt P42336, H1047R); test: PI3Kα H1047R enzyme assay (Transcreener ADP2 TR-FRET Red Assay); type: biochemical; settings: purified recombinant full-length protein; 2 hours pre-incubation with compound
Procedure: as §1

[1] = system: T47D (PI3Kα-H1047R) cell line; test: HTRF phospho-AKT(S473) cell assay in T47D cells; type: cell-based, human; settings: Homo sapiens; T47D (PI3Kα-H1047R) cells, HTRF phospho-AKT(S473), 2 hours compound incubation
Procedure, shortened: (§2)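 T47D: RPMI + 10% FBS + 0.2 units/mL insulin, top 5 μM. SKBR3: McCoy's 5A + 10% FBS, top 10 μM, 70 ng/ml PDGF-BB last 15 min. Both: 12-pt 1:3, 2 h, 37° C, max 0.5% DMSO; HTRF pAKT(S473); IC50.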

[2] = system: SKBR3 (PI3Kα-Wild Type) cell line; test: HTRF phospho-AKT(S473) cell assay in SKBR3 cells; type: cell-based, human; settings: Homo sapiens, SK-BR-3; SKBR3 (PI3Kα-Wild Type) cells, HTRF phospho-AKT(S473), 2 hours compound incubation, PDGF-BB stimulated
Procedure, shortened: as §2

Chain of PI3Kα (P42336 whole entry): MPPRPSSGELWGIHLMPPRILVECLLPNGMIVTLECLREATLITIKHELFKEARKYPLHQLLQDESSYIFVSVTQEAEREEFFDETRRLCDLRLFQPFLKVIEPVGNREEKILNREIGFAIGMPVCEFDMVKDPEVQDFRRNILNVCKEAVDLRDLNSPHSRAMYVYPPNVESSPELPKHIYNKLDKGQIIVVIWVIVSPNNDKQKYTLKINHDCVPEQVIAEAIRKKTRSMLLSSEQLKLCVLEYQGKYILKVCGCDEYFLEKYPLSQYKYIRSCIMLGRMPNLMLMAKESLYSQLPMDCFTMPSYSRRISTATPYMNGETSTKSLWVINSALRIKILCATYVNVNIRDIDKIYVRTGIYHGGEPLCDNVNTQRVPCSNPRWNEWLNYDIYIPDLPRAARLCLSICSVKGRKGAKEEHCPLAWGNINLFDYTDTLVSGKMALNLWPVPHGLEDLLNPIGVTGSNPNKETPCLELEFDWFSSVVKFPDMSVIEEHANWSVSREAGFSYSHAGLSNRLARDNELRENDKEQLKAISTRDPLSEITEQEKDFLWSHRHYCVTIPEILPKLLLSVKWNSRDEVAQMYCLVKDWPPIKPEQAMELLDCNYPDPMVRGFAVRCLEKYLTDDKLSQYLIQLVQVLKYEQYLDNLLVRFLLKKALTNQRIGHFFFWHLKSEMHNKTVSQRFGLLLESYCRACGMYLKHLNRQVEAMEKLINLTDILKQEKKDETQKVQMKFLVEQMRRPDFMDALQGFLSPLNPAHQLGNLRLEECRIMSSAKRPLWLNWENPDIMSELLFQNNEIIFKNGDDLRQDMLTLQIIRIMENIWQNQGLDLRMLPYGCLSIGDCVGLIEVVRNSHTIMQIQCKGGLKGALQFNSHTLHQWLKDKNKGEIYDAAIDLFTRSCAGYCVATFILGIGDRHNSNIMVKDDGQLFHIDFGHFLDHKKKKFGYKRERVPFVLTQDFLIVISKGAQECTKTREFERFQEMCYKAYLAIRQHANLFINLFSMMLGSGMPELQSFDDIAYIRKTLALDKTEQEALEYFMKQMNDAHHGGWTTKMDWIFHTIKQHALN
Chain of PI3Kα (P27986 2-724 partner): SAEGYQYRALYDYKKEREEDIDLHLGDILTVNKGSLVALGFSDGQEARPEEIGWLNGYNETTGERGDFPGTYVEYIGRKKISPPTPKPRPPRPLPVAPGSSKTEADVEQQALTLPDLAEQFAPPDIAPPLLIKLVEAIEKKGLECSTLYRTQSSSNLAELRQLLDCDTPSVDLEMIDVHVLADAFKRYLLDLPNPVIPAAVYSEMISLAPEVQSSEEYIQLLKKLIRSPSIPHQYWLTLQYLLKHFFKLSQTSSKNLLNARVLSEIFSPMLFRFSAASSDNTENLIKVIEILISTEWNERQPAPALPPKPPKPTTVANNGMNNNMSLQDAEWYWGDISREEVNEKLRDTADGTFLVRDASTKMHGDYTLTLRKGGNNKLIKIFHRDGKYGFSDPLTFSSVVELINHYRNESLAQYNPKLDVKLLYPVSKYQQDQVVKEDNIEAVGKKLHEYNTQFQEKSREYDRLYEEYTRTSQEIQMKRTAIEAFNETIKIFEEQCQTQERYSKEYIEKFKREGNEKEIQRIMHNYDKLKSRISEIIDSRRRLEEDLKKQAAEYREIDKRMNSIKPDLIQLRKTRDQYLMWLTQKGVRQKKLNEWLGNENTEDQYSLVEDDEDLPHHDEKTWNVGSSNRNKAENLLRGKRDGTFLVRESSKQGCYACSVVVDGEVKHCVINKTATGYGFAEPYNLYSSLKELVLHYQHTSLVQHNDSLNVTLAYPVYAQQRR
Chain of PI3Kα H1047R (P42336 whole entry H1047R): as the sequence (P42336 whole entry) above, with H1047R counted along it
Chain of PI3Kα H1047R (P27986 2-724 partner): as the sequence (P27986 2-724 partner) above

Row | SMILES | IC50 (PI3Kα) [nM] | IC50 (PI3Kα H1047R) [nM] | IC50 [1] [nM] | IC50 [2] [nM]
1 | C[C@@H](Nc1ccc(Cl)nc1C(=O)NS(C)(=O)=O)c1cc(F)cc2c(=O)n(C)c(N3CCc4ccccc4C3)nc12 [Compound 31, (R)-6-chloro-3-((1-(2-(3,4-dihydroisoquinolin-2(1H)-yl)-6-fluoro-3-methyl-4-oxo-3,4-dihydroquinazolin-8-yl)ethyl)amino)-N-(methylsulfonyl) picolinamide] | ≥ 1000 | 100 to 250 | 250 to 500 | 1000 to 5000
2 | Cc1cc([C@@H](C)Nc2ccc(Cl)nc2C(=O)NS(C)(=O)=O)c2nc(NC34CC(C3)C4)n(C)c(=O)c2c1 [Compound 6, (R)-3-((1-(2-(bicyclo[1.1.1]pentan-1-ylamino)-3,6-dimethyl-4-oxo-3,4-dihydroquinazolin-8-yl)ethyl)amino)-6-chloro-N-(methylsulfonyl) picolinamide] | ≥ 1000 | ≥ 1000 | 1000 to 5000 | ≥ 5000
3 | C[C@@H](Nc1ccc(Cl)[nH]c1=O)c1cc(F)cc2c(=O)n(C)c(N3Cc4cnn(C)c4C3)nc12 [Compound 100, (R)-8-(1-((6-chloro-2-oxo-1,2-dihydropyridin-3-yl)amino)ethyl)-6-fluoro-3-methyl-2-(1-methyl-4,6-dihydropyrrolo[3,4-c]pyrazol-5(1H)-yl)quinazolin-4(3H)-one] | ≥ 1000 | < 100 | < 250 | ≥ 5000
4 | CC(=O)NS(=O)(=O)c1nc(Cl)ccc1N[C@H](C)c1cc(C)cc2c(=O)n(C)c(N3CCC(F)(F)CC3)nc12 [Compound 78, (R)-N-((6-chloro-3-((1-(2-(4,4-difluoropiperidin-1-yl)-3,6-dimethyl-4-oxo-3,4-dihydroquinazolin-8-yl)ethyl)amino)pyridin-2-yl)sulfonyl)acetamide] | ≥ 1000 | 500 to 1000 | 250 to 500 | 1000 to 5000
5 | C[C@@H](Nc1ccc(Cl)nc1C(=O)NS(C)(=O)=O)c1cccc2c(=O)n(C)c(N3Cc4ccc(F)cc4C3)nc12 [Compound 23, (R)-6-chloro-3-((1-(2-(5-fluoroisoindolin-2-yl)-3-methyl-4-oxo-3,4-dihydroquinazolin-8-yl)ethyl)amino)-N-(methylsulfonyl) picolinamide] | ≥ 1000 | < 100 | 500 to 1000 | 1000 to 5000
6 | Cc1cc([C@@H](C)Nc2ccc(Cl)nc2C(=O)NS(C)(=O)=O)c2nc(NCC(F)(F)F)n(C)c(=O)c2c1 [Compound 34, (R)-6-chloro-3-((1-(3,6-dimethyl-4-oxo-2-((2,2,2-trifluoroethyl)amino)-3,4-dihydroquinazolin-8-yl)ethyl)amino)-N-(methylsulfonyl) picolinamide] | ≥ 1000 | 500 to 1000 | 250 to 500 | 1000 to 5000
7 | Cc1cc([C@@H](C)Nc2ccc(Cl)nc2C(=O)NS(C)(=O)=O)c2nc(OC3CCC3)n(C)c(=O)c2c1 [Compound 52, (R)-6-chloro-3-((1-(2-cyclobutoxy-3,6-dimethyl-4-oxo-3,4-dihydroquinazolin-8-yl)ethyl)amino)-N-(methylsulfonyl) picolinamide] | ≥ 1000 | 100 to 250 | 500 to 1000 | 1000 to 5000
8 | Cc1cc([C@@H](C)Nc2ccc(Cl)nc2C(=O)NS(C)(=O)=O)c2nc(NCCC3CC3)n(C)c(=O)c2c1 [Compound 18, (R)-6-chloro-3-((1-(2-((2-cyclopropylethyl)amino)-3,6-dimethyl-4-oxo-3,4-dihydroquinazolin-8-yl)ethyl)amino)-N-(methylsulfonyl) picolinamide] | ≥ 1000 | ≥ 1000 | 1000 to 5000 | ≥ 5000
9 | Cc1cc([C@@H](C)Nc2ccc(Cl)nc2C(=O)NS(C)(=O)=O)c2nc(NC(C)(C)C)n(C)c(=O)c2c1 [Compound 7, (R)-3-((1-(2-(tert-butylamino)-3,6-dimethyl-4-oxo-3,4-dihydroquinazolin-8-yl)ethyl)amino)-6-chloro-N-(methylsulfonyl) picolinamide] | ≥ 1000 | ≥ 1000 | 1000 to 5000 | ≥ 5000

Second part, the compound after the results:

Row | IC50 (PI3Kα) [nM] | IC50 (PI3Kα H1047R) [nM] | IC50 [1] [nM] | IC50 [2] [nM] | SMILES
10 | ≥ 1000 | 250 to 500 | < 250 | 1000 to 5000 | CNS(=O)(=O)NC(=O)c1nc(Cl)ccc1N[C@H](C)c1cc(C)cc2c(=O)n(C)c(N3Cc4ccc(F)cc4C3)nc12 [Compound 73, (R)-6-chloro-3-((1-(2-(5-fluoroisoindolin-2-yl)-3,6-dimethyl-4-oxo-3,4-dihydroquinazolin-8-yl)ethyl)amino)-N-(N-methyl-sulfamoyl)picolinamide]
11 | ≥ 1000 | ≥ 1000 | 1000 to 5000 | ≥ 5000 | Cc1cc([C@@H](C)Nc2cn(C)nc2C(=O)NS(C)(=O)=O)c2nc(N3Cc4ccc(F)cc4C3)n(C)c(=O)c2c1 (single isomer, unassigned) [Compound 106, 4-((1-(2-(5-fluoroisoindolin-2-yl)-3,6-dimethyl-4-oxo-3,4-dihydroquinazolin-8-yl)ethyl)amino)-1-methyl-N-(methylsulfonyl)-1H-pyrazole-3-carboxamide]
12 | ≥ 1000 | ≥ 1000 | 250 to 500 | 1000 to 5000 | Cc1cc([C@@H](C)Nc2ccc(Cl)nc2C(=O)NS(C)(=O)=O)c2nc(N3C[C@H](C)O[C@@H](C)C3)n(C)c(=O)c2c1 [Compound 25, 6-chloro-3-(((R)-1-(2-((2S,6S)-2,6-dimethylmorpholino)-3,6-dimethyl-4-oxo-3,4-dihydroquinazolin-8-yl)ethyl)amino)-N-(methylsulfonyl) picolinamide]
13 | 500 to 1000 | 100 to 250 | < 250 | 1000 to 5000 | CCn1ncc2c1CN(c1nc3c([C@@H](C)Nc4ccc(Cl)nc4C(=O)NS(C)(=O)=O)cc(C)cc3c(=O)n1C)C2 [Compound 45, (R)-6-chloro-3-((1-(2-(1-ethyl-4,6-dihydropyrrolo[3,4-c]pyrazol-5(1H)-yl)-3,6-dimethyl-4-oxo-3,4-dihydroquinazolin-8-yl)ethyl)amino)-N-(methylsulfonyl) picolinamide]
14 | ≥ 1000 | 100 to 250 | < 250 | 1000 to 5000 | C[C@@H](Nc1ccc(Cl)nc1C(=O)NS(C)(=O)=O)c1cc(F)cc2c(=O)n(C)c(N3CCc4c(cnn4C)C3)nc12 [Compound 30, (R)-6-chloro-3-((1-(6-fluoro-3-methyl-2-(1-methyl-1,4,6,7-tetrahydro-5H-pyrazolo[4,3-c]pyridin-5-yl)-4-oxo-3,4-dihydroquinazolin-8-yl)ethyl)amino)-N-(methylsulfonyl) picolinamide]
15 | ≥ 1000 | 250 to 500 | < 250 | 1000 to 5000 | Cc1cc([C@@H](C)Nc2ccc(Cl)nc2C(=O)NS(C)(=O)=O)c2nc(-c3cnc(C)c(F)c3)n(C)c(=O)c2c1 [Compound 91, (R)-6-chloro-3-((1-(2-(5-fluoro-6-methylpyridin-3-yl)-3,6-dimethyl-4-oxo-3,4-dihydroquinazolin-8-yl)ethyl)amino)-N-(methylsulfonyl) picolinamide]
16 | 500 to 1000 | < 100 | < 250 | 1000 to 5000 | Cc1cc([C@@H](C)Nc2ccc(Cl)nc2C(=O)NS(C)(=O)=O)c2nc(N3Cc4cnn(CC5CC5)c4C3)n(C)c(=O)c2c1 [Compound 47, (R)-6-chloro-3-((1-(2-(1-(cyclopropylmethyl)-4,6-dihydropyrrolo[3,4-c]pyrazol-5(1H)-yl)-3,6-dimethyl-4-oxo-3,4-dihydroquinazolin-8-yl)ethyl)amino)-N-(methylsulfonyl) picolinamide]
17 | ≥ 1000 | ≥ 1000 | 500 to 1000 | 1000 to 5000 | COc1ccc(N[C@H](C)c2cc(C)cc3c(=O)n(C)c(N4Cc5ccc(F)cc5C4)nc23)c(C(=O)NS(C)(=O)=O)n1 [Compound 65, (R)-3-((1-(2-(5-fluoroisoindolin-2-yl)-3,6-dimethyl-4-oxo-3,4-dihydro-quinazolin-8-yl)ethyl)amino)-6-methoxy-N-(methylsulfonyl) picolinamide]
18 | ≥ 1000 | ≥ 1000 | 500 to 1000 | ≥ 5000 | Cc1cc([C@@H](C)Nc2ccc(Cl)nc2C(=O)NS(=O)(=O)N(C)C)c2nc(N3Cc4ccc(F)cc4C3)n(C)c(=O)c2c1 [Compound 67, (R)-6-chloro-N-(N,N-dimethyl-sulfamoyl)-3-((1-(2-(5-fluoro-isoindolin-2-yl)-3,6-dimethyl-4-oxo-3,4-dihydroquinazolin-8-yl)ethyl)amino)picolinamide]
